Holding throughout (assay type): cell-based
Assay [1] has as its target T1, hGIPR (Homo sapiens, UniProt P48546).
T1 sequence (P48546 22-466): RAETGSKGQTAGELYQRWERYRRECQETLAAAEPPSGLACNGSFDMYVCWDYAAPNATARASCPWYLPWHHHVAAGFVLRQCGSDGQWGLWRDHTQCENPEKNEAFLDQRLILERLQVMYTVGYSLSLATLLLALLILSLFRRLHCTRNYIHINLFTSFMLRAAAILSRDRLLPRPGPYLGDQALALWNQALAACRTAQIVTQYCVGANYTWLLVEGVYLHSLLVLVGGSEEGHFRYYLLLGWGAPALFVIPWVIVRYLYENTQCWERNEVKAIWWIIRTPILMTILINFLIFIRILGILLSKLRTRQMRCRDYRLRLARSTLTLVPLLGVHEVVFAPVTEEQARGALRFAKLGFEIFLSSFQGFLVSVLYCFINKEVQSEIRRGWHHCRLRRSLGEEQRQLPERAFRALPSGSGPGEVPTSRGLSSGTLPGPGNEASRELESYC
The assay is described as follows: Functional cAMP activity in the presence of 1% HSA. The conditions noted are these: read-out: cAMP Rel EC50, hGIPR.

Assay [2] deals with T2, hGLP-1R (Homo sapiens, UniProt P43220). The assay is described as follows: Functional cAMP activity in the presence of 1% HSA. Conditions: read-out: cAMP Rel EC50, hGLP-1R.
T2 sequence (P43220 24-463): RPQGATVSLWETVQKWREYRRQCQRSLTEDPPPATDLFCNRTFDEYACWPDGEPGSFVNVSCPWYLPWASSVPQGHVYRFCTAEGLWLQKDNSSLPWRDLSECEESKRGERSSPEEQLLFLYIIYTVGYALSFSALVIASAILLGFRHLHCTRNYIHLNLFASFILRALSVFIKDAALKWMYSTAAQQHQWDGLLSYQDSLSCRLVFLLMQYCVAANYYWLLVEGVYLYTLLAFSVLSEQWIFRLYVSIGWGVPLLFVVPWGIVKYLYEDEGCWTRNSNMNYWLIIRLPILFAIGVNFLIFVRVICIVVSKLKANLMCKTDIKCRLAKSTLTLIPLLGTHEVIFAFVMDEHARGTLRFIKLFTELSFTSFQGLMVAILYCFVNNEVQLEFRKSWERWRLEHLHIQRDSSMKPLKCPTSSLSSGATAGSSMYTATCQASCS
Assay [3] concerns the target human GcgR (Homo sapiens, UniProt P47871). The assay is described as follows: Functional cAMP activity in the presence of 1% HSA. Conditions: read-out: cAMP Rel EC50, hGcgR.
Assay [4] deals with T1, hGIPR. Nature of the assay: Functional cAMP activation in the presence of 0.1% casein (no HSA). The conditions noted are these: in the presence of 0.1% casein (no HSA); geometric mean; read-out: Relative cAMP EC50, hGIPR.
Assay [5] deals with T2, hGLP-1R. The assay is described as above. The conditions noted are these: in the presence of 0.1% casein (no HSA); geometric mean; read-out: Relative cAMP EC50, hGLP-1R.
For assay [6], the target named is hGcgR (Homo sapiens, UniProt P47871). The assay is described as above. The conditions noted are these: in the presence of 0.1% casein (no HSA); geometric mean; read-out: Relative cAMP EC50, hGcgR.
Chain of hGcgR (P47871 26-477): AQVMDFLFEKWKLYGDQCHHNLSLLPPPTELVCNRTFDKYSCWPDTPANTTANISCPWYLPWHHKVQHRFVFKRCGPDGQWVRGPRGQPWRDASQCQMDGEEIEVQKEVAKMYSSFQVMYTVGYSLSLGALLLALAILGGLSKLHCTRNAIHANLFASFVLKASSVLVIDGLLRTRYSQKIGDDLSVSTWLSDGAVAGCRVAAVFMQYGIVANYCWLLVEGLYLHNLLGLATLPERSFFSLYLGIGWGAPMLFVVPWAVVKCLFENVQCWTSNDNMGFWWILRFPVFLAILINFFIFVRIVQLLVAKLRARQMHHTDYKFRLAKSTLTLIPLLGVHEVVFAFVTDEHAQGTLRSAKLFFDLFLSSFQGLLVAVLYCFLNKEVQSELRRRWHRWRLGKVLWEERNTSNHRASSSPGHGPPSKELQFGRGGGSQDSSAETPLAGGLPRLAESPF
The target of assay [7] is human GLP1-R (Homo sapiens, UniProt P43220). Nature of the assay: GLP1-R internalization assay in HEK293 cells. Conditions: for EC50: HEK293 cells expressing SNAP-GLP-1R, read-out: GLP1R Internalization EC50; for Internalization % TOP: normalized to maximum concentration of GLP-1 (100%).
Chain of human GLP1-R (P43220 24-463): as the sequence (P43220 24-463) above

Starred links: 1 amine or outer side, 2 acyl side, 3 side chain; linkers in the order of their positions; H or OH if unused. Non-standard residues stand in square brackets, D forms with d. Groups on a side chain read outwards from the residue. *: point of attachment. C20 diacid = O=C(O)CCCCCCCCCCCCCCCCCCC(=O)*; C18 diacid = O=C(O)CCCCCCCCCCCCCCCCC(=O)*; γGlu = O=C(O)[C@H](CCC(=O)[*:2])N[*:1]; αMe4Pal = C[C@](N)(Cc1ccncc1)C(=O)O; 4Pal = N[C@@H](Cc1ccncc1)C(=O)O; αMeL = CC(C)C[C@](C)(N)C(=O)O; Orn = NCCC[C@H](N)C(=O)O; Dap = NC[C@H](N)C(=O)O; AEEA = NCCOCCOCC(=O)O; Aib = CC(C)(N)C(=O)O
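Wherever Relative cAMP EC50, hGIPR is given: intracellular cAMP rise after 30 min at 37 °C read by HTRF against a standard curve, scaled between buffer alone (0%) and top control ligand concentration (100%), four-parameter fit.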
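Wherever Relative cAMP EC50, hGLP-1R is given: intracellular cAMP rise after 30 min at 37 °C read by HTRF, normalized between buffer only (0%) and maximal control ligand (100%), four-parameter variable-slope fit.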
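Wherever Relative cAMP EC50, hGcgR is given: intracellular cAMP rise after 30 min at 37 °C, read by HTRF against a cAMP standard curve, scaled from buffer only (0%) to maximal control ligand response (100%).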

Chain of human GcgR (P47871 26-477): as the sequence (P47871 26-477) above

The term EC50 denotes the midpoint of the concentration-response curve. Regarding “H-Y[Aib]QGTFTSDFS[Orn][αMeL]LDKK([AEEA-γGlu-C18 diacid])AQ[Aib]AFIEYLLE[Aib]GPSSGAPPPSGT-NH2 [Example 200]”, the EC50 in assay [1] was 13.7 nM; in assay [2] it was 395 nM; in assay [3] it was 360 nM; in assay [4] it was 0.0739 nM; in assay [5], 3.19 nM; in assay [6], 2.83 nM. Moreover, the EC50 in assay [7] was 86.1 nM. Also, the “Internalization % TOP” value in assay [7] was found to be 39.2%.

Turning to “H-Y[Aib]QGTFTSDFS[Orn][αMeL]LDKK([AEEA-γGlu-C18 diacid])AQ[Aib]AFIEYLLE[Aib]GPSSG[Aib]PPPSGS-NH2 [Example 239]”, the EC50 in assay [1] stood at 12 nM; in assay [2], 419 nM; in assay [3], 693 nM; in assay [4] it was 0.0503 nM; in assay [5] it was 2.9 nM; in assay [6], 2.14 nM. The EC50 in assay [7] is 72.6 nM. Also, the “Internalization % TOP” value in assay [7] is reported as 42.9%.

In the case of “H-Y[Aib]QGTFTSDFS[Orn][αMeL]LDKK([AEEA-γGlu-C18 diacid])AQ[Aib]AFIEYLLE[Aib]G[4Pal]SSGAPPPSGE-NH2 [Example 248]”, the EC50 came to 10.6 nM in assay [1]; 438 nM in assay [2]; 241 nM in assay [3]; 0.0861 nM in assay [4]; 3.17 nM in assay [5]; 3.36 nM in assay [6]. Also, in assay [7], the EC50 came to 67.4 nM. The “Internalization % TOP” value in assay [7] turned out to be 39.5%.

Take “H-Y[Aib]QGTFTSDFS[Orn][αMeL]LDKK([AEEA-γGlu-C18 diacid])AQ[αMe4Pal]AFIEYLIE[Aib]GESSGAPPPSGE-NH2 [Example 228]”: the EC50 came out at 37.8 nM in assay [1]; 311 nM in assay [2]; 322 nM in assay [3]; 0.147 nM in assay [4]; 1.52 nM in assay [5]; 1.38 nM in assay [6]. Besides, the EC50 in assay [7] amounted to 39 nM. The “Internalization % TOP” value in assay [7] was found to be 35%.

In the case of “H-Y[Aib]QGTFTSDFS[Orn][αMeL]LDKK([AEEA-γGlu-C18 diacid])AQ[αMe4Pal]AFIEYLIE[Aib]GESSGAPPPSGS-NH2 [Example 229]”, the EC50 is 27.8 nM in assay [1]; 249 nM in assay [2]; 332 nM in assay [3]; 0.179 nM in assay [4]; 1.58 nM in assay [5]; 2.3 nM in assay [6]. Besides, in assay [7], the EC50 was found to be 42.4 nM. Moreover, the “Internalization % TOP” value in assay [7] is 31.4%.

On to “H-Y[Aib]QGTFTSDFS[Orn][αMeL]LDKK([AEEA-γGlu-C20 diacid])AQ[Aib]AFIEWLLEGGPSSGAPPPSGS-NH2 [Example 78]”, for which the EC50 in assay [1] turned out to be 78.4 nM; in assay [2], 560 nM; in assay [3] it was 2640 nM; in assay [4], 0.228 nM; in assay [5], 1.93 nM; in assay [6] it was 7.06 nM. Further, the EC50 in assay [7] came to 78.2 nM. The “Internalization % TOP” value in assay [7] was 55%.

Regarding “H-Y[Aib]QGTFTSDFS[Orn][αMeL]LDKK([AEEA-γGlu-γGlu-C18 diacid])AQ[Aib]AFIEYLLE[Aib]GPSSGAPPPSGS-NH2 [Example 192]”, the EC50 was found to be 9.86 nM in assay [1]; 719 nM in assay [2]; 560 nM in assay [3]; 0.142 nM in assay [4]; 9.77 nM in assay [5]; 4.18 nM in assay [6]. The EC50 in assay [7] was 115 nM. Further, in assay [7], the “Internalization % TOP” value stood at 48.7%.

In the case of “H-Y[Aib]QGTFTSDFS[Orn][αMeL]LDKK([AEEA-γGlu-γGlu-C18 diacid])AQ[Aib]AFIEYLLE[Aib]GPSSGAPPPSGT-NH2 [Example 278]”, the EC50 in assay [1] was 7.69 nM; in assay [2] it was 241 nM; in assay [3], 274 nM; in assay [4] it was 0.0963 nM; in assay [5], 4.11 nM; in assay [6] it was 4.45 nM. The EC50 in assay [7] amounted to 251 nM. For the same substance, the “Internalization % TOP” value in assay [7] is 68.6%.

In the case of “H-Y[Aib]QGTFTSDFS[Orn][αMeL]LDKK([AEEA-γGlu-γGlu-C18 diacid])AQ[Aib]AFIEYLLE[Aib]GPSSGAPPPSG[4Pal]-NH2 [Example 279]”, the EC50 in assay [1] stood at 11.6 nM; in assay [2], 367 nM; in assay [3], 427 nM; in assay [4] it was 0.105 nM; in assay [5], 5.77 nM; in assay [6], 5.06 nM. In addition, the EC50 in assay [7] is 115 nM. For the same substance, the “Internalization % TOP” value in assay [7] is 37.5%.

On to “H-Y[Aib]QGTFTSDFS[Orn][αMeL]LDKK([γGlu-AEEA-γGlu-C18 diacid])AQ[Aib]AFIEYLLE[Aib]GPSSGAPPPSGT-NH2 [Example 276]”, for which the EC50 in assay [1] turned out to be 6.28 nM; in assay [2], 103 nM; in assay [3], 113 nM; in assay [4] it was 0.0708 nM; in assay [5] it was 2.61 nM; in assay [6] it was 2.82 nM. In addition, the EC50 in assay [7] was 237 nM. For the same substance, in assay [7], the “Internalization % TOP” value came to 68.4%.

As for “H-Y[Aib]QGTFTSDYSK[αMeL]LDKK([AEEA-γGlu-C18 diacid])AQ[Aib]AFIEYLLEGGESSGAPPPSGS-NH2 [Example 358]”, the EC50 was 38.8 nM in assay [1]; 492 nM in assay [2]; 876 nM in assay [3]; 0.182 nM in assay [4]; 2.31 nM in assay [5]; 2.78 nM in assay [6]. For the same substance, the EC50 in assay [7] came out at 21.5 nM. Besides, in assay [7], the “Internalization % TOP” value is 83.1%.

On to “H-Y[Aib]QGTFTSDYSQ[αMeL]LDKK([AEEA-γGlu-C18 diacid])AQ[Aib]AFIEYLLEGGESSGAPPPSGS-NH2 [Example 362]”, for which the EC50 turned out to be 38.7 nM in assay [1]; 450 nM in assay [2]; 1450 nM in assay [3]; 0.262 nM in assay [4]; 1.77 nM in assay [5]; 6.04 nM in assay [6]. Moreover, the EC50 in assay [7] amounted to 22.8 nM. Also, in assay [7], the “Internalization % TOP” value was 77.5%.

For “H-Y[Aib]QGTFTSDYS[Dap][αMeL]LDKK([AEEA-γGlu-C18 diacid])AQ[Aib]AFIEYLLEGGESSGAPPPSGS-NH2 [Example 360]”, the EC50 in assay [1] came out at 78.3 nM; in assay [2], 989 nM; in assay [3] it was 1470 nM; in assay [4] it was 0.45 nM; in assay [5], 5.86 nM; in assay [6] it was 5.28 nM. The EC50 in assay [7] is 214 nM. Moreover, the “Internalization % TOP” value in assay [7] was found to be 66.1%.

On to “H-Y[Aib]QGTFTSDYS[Orn][αMeL]LDKK([AEEA-γGlu-C18 diacid])AQ[Aib]AFIEYLLEGGESSGAPPPSGS-NH2 [Example 359]”, for which the EC50 in assay [1] was found to be 103 nM; in assay [2] it was 826 nM; in assay [3] it was 957 nM; in assay [4] it was 0.281 nM; in assay [5], 4.61 nM; in assay [6], 2.1 nM. Besides, the EC50 in assay [7] stood at 49.6 nM. Further, the “Internalization % TOP” value in assay [7] amounted to 74.4%.

In the case of “H-Y[Aib]QGTFTSD[4Pal]SK[αMeL]LDKK([AEEA-γGlu-C18 diacid])AQ[Aib]AFIEYLIA[Aib]GESSGAPPPSGS-NH2 [Example 285]”, the EC50 was found to be 8.22 nM in assay [1]; 365 nM in assay [2]; 409 nM in assay [3]; 0.0652 nM in assay [4]; 2.87 nM in assay [5]; 2.32 nM in assay [6]. Also, in assay [7], the EC50 is 59.9 nM. The “Internalization % TOP” value in assay [7] is recorded as 73.6%.

Regarding “H-Y[Aib]QGTFTSD[4Pal]SK[αMeL]LDKK([AEEA-γGlu-C18 diacid])AQ[Aib]AFIEYLIE[Aib]GESSGAPPPSGS-NH2 [Example 280]”, the EC50 came out at 15.6 nM in assay [1]; 171 nM in assay [2]; 1600 nM in assay [3]; 0.105 nM in assay [4]; 0.95 nM in assay [5]; 8.63 nM in assay [6]. Besides, the EC50 in assay [7] turned out to be 39.4 nM. Moreover, the “Internalization % TOP” value in assay [7] came to 74.9%.

In the case of “H-Y[Aib]QGTFTSD[4Pal]SK[αMeL]LDKK([AEEA-γGlu-C18 diacid])AQ[Aib]AFIEYLIE[Aib]GESSGEPPPSGS-NH2 [Example 282]”, the EC50 in assay [1] amounted to 22.1 nM; in assay [2] it was 217 nM; in assay [3], 1830 nM; in assay [4] it was 0.163 nM; in assay [5], 1.09 nM; in assay [6] it was 6.98 nM. The EC50 in assay [7] amounted to 28.7 nM. In assay [7], the “Internalization % TOP” value came to 71.9%.

Take “H-Y[Aib]QGTFTSD[4Pal]SR[αMeL]LDKK([AEEA-γGlu-C18 diacid])AQ[Aib]AFIEYLLAGGPSSGAPPPSGE-NH2 [Example 113]”: the EC50 in assay [1] came out at 32.3 nM; in assay [2], 467 nM; in assay [3], 2090 nM; in assay [4] it was 0.24 nM; in assay [5], 3.93 nM; in assay [6], 12 nM. In addition, in assay [7], the EC50 came out at 39.5 nM. Moreover, the “Internalization % TOP” value in assay [7] stood at 64.6%.

(Values after patent publication US20240270821A1, “GIP/GLP1/GCG TRI-RECEPTOR AGONISTS AND USES THEREOF” (priority 2023, published 2024).)
